Values after ≈ are worked out from the molar mass of the structure shown. Where two headings read alike, the source gives them in different places.
How the values were obtained:
[1] = test system: HIV-1 (IIIB); experiment: microbe, parasite or virus in culture; type: cell-based; details: for HIV-1 % Protection: protection of CEM cells against virus-induced cytopathicity at the concentration in the previous column; for EC50: Human immunodeficiency virus 1, IIIB, CCRF-CEM, read-out: EC50 (ug/ml) HIV-1
Description: (§1) The cell type used to determine activity of the compounds of the invention herein, i.e., the test compounds, against HIV was human T-lymphoblast (CEM) cells obtained from the American Tissue Cell Culture Collection (Rockville, Md.). HIV-1 (IIIB) was originally obtained from the culture of persistently HIV-1 infected H9 cells and was provided by R. C. Gallo and M. Popovic (National Cancer Institute, National Institutes of Health, Bethesda, Md.). HIV-2 (ROD) was originally obtained from L. M. Montagnier (Pasteur Institute, Paris, France).
(§2) To determine the antiviral activity of the test compounds, CEM cells were suspended at a cell density of approximately 300,000 cells per ml of culture medium and infected with approximately 100 CCID50 (100 CCID50 being the 50% cell culture infective dose) of HIV-1 (IIIB) or HIV-2 (ROD)). Then 100 μl of the infected cell suspensions was added to 200 μl micro titer plate wells containing 100 μl of appropriate serial (5-fold) dilutions of the test compounds. The inhibitory effect of the test compounds on HIV-1 or HIV-2 syncytium formation in CEM cells was examined microscopically on day four post infection.
(§3) In these cases, the percent protection of the cells against virus-induced cytopathicity by the test compounds at the indicated compound concentration in the previous column is given.

[2] = test system: HIV-2 (ROD); experiment: Inhibition of HIV-2 syncytium formation in CEM cells; type: cell-based; details: for HIV-2 % Protection: protection of CEM cells against virus-induced cytopathicity at the concentration in the previous column; for EC50: Human immunodeficiency virus 2, CCRF-CEM, read-out: EC50 (ug/ml) HIV-2
Description: as §1, §2, §3

[3] = test system: Davis strain CMV; experiment: Reduction of CMV-induced cytopathicity in HEL cells; type: cell-based, human cytomegalovirus (HCMV); details: for Antiviral % Inhibition Davis strain CMV: estimate of percent protection at the concentration in the previous column; for EC50: read-out: Antiviral EC50 (ug/ml) Davis strain CMV
Procedure: Confluent HEL cells grown in […] microtiter plates were inoculated with CMV at an input of 100 PFU (plaque forming units) per well. After a one to two hour incubation period, residual virus was removed and the infected cells were further incubated with MEM (Minimal Essential Medium) (supplemented with 2% inactivated Fetal Calf Serum (FCS), […], and 0.3% sodium bicarbonate) containing varying concentrations of the test compounds. Antiviral activity was expressed as EC50 (50% effective concentration), or test compound concentration required to reduce virus-induced cytopathicity after seven days by 50% compared to the untreated control.
In some cases, the compounds had considerable cytotoxicity against HEL cells, which made determination of the EC50 difficult. In these cases, an estimate of the percent protection at the compound concentration indicated in the previous columns is given.

[4] = CEM cells, syncytium formation, day four post infection
[5] = HEL cells, virus-induced cytopathicity after seven days
[6] = Human betaherpesvirus 5, 168 h, HEL cells, virus-induced cytopathicity after seven days

Compound	EC50 (ug/ml) HIV-1 [1, 4]	EC50 (ug/ml) HIV-2 [2, 4]	HIV-2 % Protection [2]	Antiviral % Inhibition Davis strain CMV ([3]; HEL cells)	Antiviral EC50 (ug/ml) Davis strain CMV [3, 5]	HIV-1 % Protection [1]	EC50 [1, 4]	EC50 [2, 4]	EC50 [3, 6]	EC50 [1]	EC50 [2]	EC50 ([3]; Human betaherpesvirus 5, HEL, 168 h)
Cc1ccc[n+]([O-])c1S(=O)(=O)Cc1ccccc1 [Compound 80]	15.00 µg/mL (≈ 57 µM)	>20.0 µg/mL	0.0%	0.0%	>20 µg/mL							
Cc1ccc(CS(=O)(=O)c2c(C)ccc[n+]2[O-])c(C)c1 [Compound 83]	6.00 µg/mL (≈ 20.6 µM)	≧20 ug/ml	37.5%		12.0 µg/mL							
COc1ccc(CS(=O)(=O)c2cccc[n+]2[O-])cc1OC [Compound 46]	≧20 ug/ml	15.0 µg/mL (≈ 48.5 µM)		40.0%	>50 µg/mL	37.5%						
Cc1ccc[n+]([O-])c1[S+]([O-])Cc1c(Cl)cccc1Cl (stereo not drawn) [Compound 138]	>100 µg/mL	>100.0 µg/mL	0.0%	20.0%	>50 µg/mL	0.0%						
N#CC(=Cc1ccccc1)Sc1cccc[n+]1[O-] [Compound 158]	>4 µg/mL	>4 µg/mL	0.0%		3.6 µg/mL	0.0%						
Cc1ccc(C)c(CS(=O)(=O)c2cccc[n+]2[O-])c1C [Compound 41]	5.00 µg/mL (≈ 17.2 µM)	4.7 µg/mL (≈ 16.1 µM)			8.6 µg/mL							
CC(C)c1ccc(C(C)C)c(CS(=O)(=O)c2cccc[n+]2[O-])c1 [Compound 35]	≧4 ug/ml	≧4 ug/ml	37.5%		3.2 µg/mL	37.5%						
COc1ccc(C)cc1CSc1cccc[n+]1[O-] [Compound 93]	8.00 µg/mL (≈ 30.6 µM)	≧20 ug/ml	37.5%	0.0%	>50 µg/mL							
CN1CCCCC1CSc1cccc[n+]1[O-] (racemic) [Compound 156]	16.00 µg/mL (≈ 67.1 µM)	>100 µg/mL	0.0%	0.0%	>50 µg/mL							
N#Cc1ccccc1CS(=O)(=O)c1cccc[n+]1[O-] [Compound 24]	7.00 µg/mL (≈ 25.5 µM)	9.5 µg/mL (≈ 34.6 µM)		30.0%	>5 µg/mL							
Cc1ccc(C)c(C[S+]([O-])c2cccc[n+]2[O-])c1 (stereo not drawn) [Compound 3]	7.20 µg/mL (≈ 27.5 µM)	≧20 ug/ml	37.5%		36.0 µg/mL							
[O-][n+]1ccccc1SCc1ccccc1 [Compound 4]	≧100 ug/ml	>100 µg/mL	0.0%	0.0%	>50 µg/mL	37.5%						
CC(C)c1cc(CS(=O)(=O)c2cccc[n+]2[O-])c(C(C)C)cc1Br [Compound 63]	2.30 µg/mL (≈ 5.58 µM)	2.5 µg/mL (≈ 6.06 µM)			3.7 µg/mL							
Cc1ccc(C)c(C(C)S(=O)(=O)c2c(Cl)ccc[n+]2[O-])c1 (racemic) [Compound 124]	>.8 µg/mL	>0.80 µg/mL	0.0%	10.0%	>5 µg/mL	0.0%						
Cc1ccc(C)c(CS(=O)(=O)c2ccc(Cl)c[n+]2[O-])c1 [Compound 94]	1.90 µg/mL (≈ 6.09 µM)	2.6 µg/mL (≈ 8.34 µM)			12.0 µg/mL							
Cc1ccc(C)c(C(C)S(=O)(=O)c2cccc[n+]2[O-])c1 (stereo not drawn) [Compound 9, 2-(1-[2,5-Dimethylphenyl]ethylsulfonyl)pyridine N-oxide]			0.0%	0.0%		37.5%	≥ 100 µg/mL	> 100 µg/mL	> 50 µg/mL			

Compound	EC50 (ug/ml) HIV-1 [1, 4]	EC50 (ug/ml) HIV-2 [2, 4]	HIV-2 % Protection [2]	Antiviral % Inhibition Davis strain CMV ([3]; HEL cells)	Antiviral EC50 (ug/ml) Davis strain CMV [3, 5]	HIV-1 % Protection [1]	EC50 [1, 4]	EC50 [2, 4]	EC50 [3, 6]	EC50 [1]	EC50 [2]	EC50 ([3]; Human betaherpesvirus 5, HEL, 168 h)
CC(c1ccccc1)[S+]([O-])c1cccc[n+]1[O-] (stereo not drawn) [Compound 102, 2-(1-Phenylethylsulfinyl)pyridine N-oxide]			0.0%			0.0%	> 0.8 µg/mL	> 0.8 µg/mL	4.3 µg/mL (≈ 17.4 µM)			
O=S(=O)(c1cccc[n+]1[O-])C(Cl)c1ccccc1 (stereo not drawn) [Compound 105, 2-(alpha-phenyl-alpha-chloromethylsulfonyl)pyridine-N-oxide]	16.00 µg/mL (≈ 56.4 µM)	2.5 µg/mL (≈ 8.81 µM)			23.0 µg/mL							
O=S(=O)(Cc1ccc(Cl)cc1)c1cccc[n+]1[O-] [Compound 12]	9.50 µg/mL (≈ 33.5 µM)	9.5 µg/mL (≈ 33.5 µM)			20.0 µg/mL							
Cc1ccc(C)c(CSc2ccccn2)c1 [Compound 148, 2-((2,5-dimethylphenyl)methylthio)pyridine]										> 20 µg/mL	> 20 µg/mL	0.4 µg/mL (≈ 1.74 µM)
2-(4-(2,2-dichlorocyclopropyl)phenyl)methylsulfonyl)-pyridine-N-oxide [Compound 45]	1.75 µg/mL	1.5 µg/mL			2.5 µg/mL							
Cc1ccc[n+]([O-])c1S(=O)(=O)C(C)c1ccccc1Cl (stereo not drawn) [Compound 120]	3.30 µg/mL (≈ 10.6 µM)	>20.00 µg/mL	0.0%		12.5 µg/mL							
Cc1cccc(CS(=O)(=O)c2cccc[n+]2[O-])c1 [Compound 27]	2.40 µg/mL (≈ 9.11 µM)	9.0 µg/mL (≈ 34.2 µM)			16.0 µg/mL							
COc1ccc(C=C(C#N)Sc2cccc[n+]2[O-])cc1 [Compound 159]	>20 µg/mL	>20 µg/mL	25.0%		10.0 µg/mL	0.0%						
Cc1ccc(C)c(C[S+]([O-])c2ccc(Cl)c[n+]2[O-])c1 (stereo not drawn) [Compound 153]	2.10 µg/mL (≈ 7.1 µM)	3.0 µg/mL (≈ 10.1 µM)			11.5 µg/mL							
CC(C)c1ccc(C(C)C)c(C[S+]([O-])c2cccc[n+]2[O-])c1 (stereo not drawn) [Compound 95]	>4 µg/mL	≧4 ug/ml	37.5%		4.1 µg/mL							
Cc1cc(CS(=O)(=O)c2cccc[n+]2[O-])ccc1[N+](=O)[O-] [Compound 66]	3.10 µg/mL (≈ 10.1 µM)	2.5 µg/mL (≈ 8.11 µM)			5.0 µg/mL							
CCOc1ccccc1CS(=O)(=O)c1cccc[n+]1[O-] [Compound 48]	9.50 µg/mL (≈ 32.4 µM)	16.0 µg/mL (≈ 54.5 µM)		20.0%	>20 µg/mL							
COc1ccc(C(c2ccccc2)S(=O)(=O)c2cccc[n+]2[O-])cc1OC (stereo not drawn) [Compound 61]	>4 µg/mL	>4.0 µg/mL	6.0%		14.0 µg/mL	0.0%						
COc1ccc(CS(=O)(=O)c2cccc[n+]2[O-])cc1 [Compound 19]	≧20 ug/ml	14.0 µg/mL (≈ 50.1 µM)			20.0 µg/mL	37.5%						
Cc1c(Cl)c(Cl)c(CS(=O)(=O)c2cccc[n+]2[O-])c(Cl)c1Cl [Compound 49]	≧.8 ug/ml	≧.8 ug/ml	37.5%		5.0 µg/mL	37.5%						

— patent US7064139B2, “Method for treating retroviral infections” (Uniroyal Chemical Company, Inc., priority 2001, dated 2006)
